Tests used:
anesthetized rats = assay: Renal potassium excretion during and after iv peptide infusion in anesthetized rats; type: in vivo, rat; settings: for FEK vs control: post infusion period, only after the highest doses
Protocol: Rats were not fasted prior to clearance experiments and ranged in weight from 250-340 g at the time of study. Anesthesia was induced with an intraperitoneal injection of pentobarbital sodium (55 mg/kg BW) and maintained at a surgical plane by intermittent intravenous supplementation. Core temperature was maintained at 37° C. by a servo-controlled, heated operating table. Animals breathed spontaneously through a PE240 cannula inserted into the trachea. A jugular vein was catheterized with PE50 cannula tubing for intravenous infusion of isotonic saline containing FITC-labeled inulin (0.4% W/V, Sigma, St Louis Mo.) and two PE10 cannulae, one for supplemental anesthetic and the other for peptide infusions (described below in the experimental protocol section). The ureters were exposed through a midline ventral incision and cannulated with PE10 tubing about one cm from each kidney. Urine was collected over 20 min periods and the volume estimated by weight. A femoral artery was cannulated with PE50 tubing for continuous measurement of arterial blood pressure and intermittent blood samples (50 μl), taken at the mid point of each urine collection.
Arterial blood pressure was measured with a pressure transducer connected to a cardiovascular analyzer (Model 50110, Stoelting Instruments Wood Dale, Ill.). Left renal blood flow was measured in some rats with a flow probe positioned on the left renal artery and connected to a blood flow monitor (model 1 PRB probe and model T420 monitor, Transonic Systems Inc. Ithaca N.Y.). Arterial pressure, heart rate, and renal blood flow were digitized with an A/D converter (Keithley instruments, Cleveland, Ohio Model KUSB 3100) for display and storage on a Windows-based personal computer using open layers data acquisition software (Dtx_Ez, Data Translation Inc, Marlboro, Mass.). Sodium and potassium concentrations in plasma and urine were measured by flame photometry (Model 943, Instrumentation Laboratory Co., Lexington Mass.). Glomerular filtration rate (GFR) was measured as the renal clearance rate of FITC-labeled inulin
After post-surgical equilibration (−60 min) and three 20 min control clearance periods, huUgnA or B was infused into the jugular vein at 10 μl/min over a 60 min period, followed by a return to isotonic saline for the remainder of the experiment. The infused doses of huUgnA were 12, 25, 50, 100, or 200 nmol/kg BW in a total of 38 rats; huUgnB doses were 9, 18, 35, 70, and 140 nmol/kg BW in 35 rats. A UgnA mimetic, E. coli STh (ST-core), was infused into a third group of 32 rats at doses of 17, 32, 66, 133, and 266 nmol/kg. Renal excretory responses to these infusions were slow to develop and long lasting, so clearance periods were continued for 2-3 hr after the termination of the peptide infusion. This protracted time course limited protocols to one dose of one peptide in each rat. A control group of 10 rats received isotonic saline at 10 μl/min in place of the peptide infusion, but was otherwise treated in the same way as the experimental groups.
Sodium and potassium excretion rates are expressed as absolute values (UNaV and UKV) or factored by filtered load to provide fractional excretion (FENa and FEK). Glomerular filtration rate (GFR) was equated with inulin clearance. The net natriuretic response to peptide infusions was assessed by summing total Na excretion during infusion and post-infusion collection periods in each rat after subtraction of corresponding mean values obtained from the control group. The cumulative net excretion obtained in this way provides a measure of the natriuretic response to each dose of peptide infused. Results from both kidneys were averaged for each rat before calculating group means±sem.
Group comparisons were made with one way analysis of variance (ANOVA) using peptide doses as column variables. […]

[1] = target: T1, GC-C receptor, GC-C-expressing T84 cell line (Homo sapiens, UniProt P25092); assay: T84 cell cyclic GMP bioassay; type: cell-based
T1 construct: measuring cyclic GMP synthesis in the GC-C-expressing T84 cell line; endogenous in cells; host or cells: T84 colon carcinoma cells
T1 sequence (P25092 24-1073): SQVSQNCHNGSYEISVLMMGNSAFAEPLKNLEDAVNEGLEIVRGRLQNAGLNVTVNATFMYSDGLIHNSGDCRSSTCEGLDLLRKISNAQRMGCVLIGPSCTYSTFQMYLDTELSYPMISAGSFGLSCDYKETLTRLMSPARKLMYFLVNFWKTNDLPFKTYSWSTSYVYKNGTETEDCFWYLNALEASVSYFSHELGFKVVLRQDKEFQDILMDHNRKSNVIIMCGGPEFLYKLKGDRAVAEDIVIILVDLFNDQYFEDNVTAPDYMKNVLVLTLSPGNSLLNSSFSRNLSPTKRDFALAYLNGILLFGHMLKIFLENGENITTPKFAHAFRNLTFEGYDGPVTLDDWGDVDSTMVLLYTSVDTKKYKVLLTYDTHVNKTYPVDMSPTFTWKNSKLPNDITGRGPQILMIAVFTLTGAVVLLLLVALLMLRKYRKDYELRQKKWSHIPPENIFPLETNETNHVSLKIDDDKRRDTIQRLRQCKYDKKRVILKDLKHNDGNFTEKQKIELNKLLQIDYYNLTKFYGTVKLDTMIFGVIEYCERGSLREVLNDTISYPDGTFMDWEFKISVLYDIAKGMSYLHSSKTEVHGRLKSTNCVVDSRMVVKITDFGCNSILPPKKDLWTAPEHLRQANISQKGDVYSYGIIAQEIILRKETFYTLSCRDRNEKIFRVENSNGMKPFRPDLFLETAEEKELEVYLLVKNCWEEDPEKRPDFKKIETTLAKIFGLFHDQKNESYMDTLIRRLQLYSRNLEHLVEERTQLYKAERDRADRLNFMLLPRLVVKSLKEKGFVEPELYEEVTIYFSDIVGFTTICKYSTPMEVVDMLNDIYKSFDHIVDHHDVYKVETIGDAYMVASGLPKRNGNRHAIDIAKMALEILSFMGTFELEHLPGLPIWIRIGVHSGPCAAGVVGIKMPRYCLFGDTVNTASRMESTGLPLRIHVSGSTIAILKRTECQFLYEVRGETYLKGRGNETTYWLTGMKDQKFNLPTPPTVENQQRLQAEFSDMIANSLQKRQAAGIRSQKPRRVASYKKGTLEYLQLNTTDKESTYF
Protocol: Bioassay of huUgnA-like activity. The concentration of huUgnA-like bioactivity in infused peptide solutions and in urine collected during experiments was measured using a T84 cell-based bioassay, as described previously. T84 cells are a colon carcinoma cell line that increases cyclic GMP production in response to GC-C receptor agonists such as Ugn, Gn and ST core peptide. T84 cells were grown to near confluence in 12 well culture clusters, and then incubated with unknowns or standard concentrations of huUgnA. Standards or urine samples were diluted into bioassay medium (1 mM 3-isobutyl-1-methylxanthine, 0.03 mM phenol red, 137 mM NaCl, 5.4 mM KCl, 0.25 mM Na2HPO4, 0.44 mM KH2PO4, 1.3 mM CaCl2, 1.0 mM MgSO4, 4.2 mM NaHCO3, 10 mM HEPES buffered at pH 7.0) and the pH was adjusted to 7.0, if required, using the phenol red indicator dye as a guide. This pH adjustment was necessary, as it is well-established that the response of T84 cells to UGn is highly pH dependent. The broad spectrum phosphodiesterase inhibitor (isobutyl methylxanthine) was included to prevent degradation of cyclic GMP. After 30 min, the cells were lysed and cyclic GMP levels measured by radioimmunoassay (Biomedical Technologies Inc Stoughton Mass.). Standards and unknowns were assayed in triplicate. […]

Mice = assay: Natriuretic response in mice; type: in vivo, mouse

CC(C)C[C@H](NC(=O)[C@@H]1CSSC[C@@H]2NC(=O)[C@H](CC(C)C)NC(=O)[C@H](CCC(=O)O)NC(=O)[C@@H](NC(=O)[C@H](CC(=O)O)NC(=O)[C@H](CC(=O)O)NC(=O)[C@@H](N)CC(N)=O)CSSC[C@H](NC(=O)[C@H](C)NC(=O)[C@H](C(C)C)NC(=O)[C@H](CC(N)=O)NC(=O)[C@H](C(C)C)NC2=O)C(=O)N[C@@H]([C@@H](C)O)C(=O)NCC(=O)N1)C(=O)O (single isomer, unassigned) [huUgnA, Asn Asp Asp Cys Glu Leu Cys Val Asn Val Ala Cys Thr Gly Cys Leu, reference compound]
increase in UKV during or after infusion (anesthetized rats; any dose tested): no statistically significant increases
FEK (fractional potassium excretion) (anesthetized rats; huUgnA 12 nmol, Infuse): 29.8 ± 3.6 % of filtered
UKV (potassium excretion) (anesthetized rats; huUgnA 12 nmol, Infusion): 1097 ± 54 nEq/min/g KW
FEK (fractional potassium excretion) (anesthetized rats; huUgnA 12 nmol, Post-infuse): 34.9 ± 2.7 % of filtered
UKV (potassium excretion) (anesthetized rats; huUgnA 12 nmol, Post-infuse): 1299 ± 51 nEq/min/g KW
FEK (fractional potassium excretion) (anesthetized rats; huUgnA 12 nmol, Pre-infuse): 18.8 ± 2.3 % of filtered
UKV (potassium excretion) (anesthetized rats; huUgnA 12 nmol, Pre-infuse): 709 ± 74 nEq/min/g KW
FEK (fractional potassium excretion) (anesthetized rats; huUgnA 25 nmol, Infuse): 40.7 ± 3.5 % of filtered
UKV (potassium excretion) (anesthetized rats; huUgnA 25 nmol, Infusion): 1292 ± 80 nEq/min/g KW
FEK (fractional potassium excretion) (anesthetized rats; huUgnA 25 nmol, Post-infuse): 46.5 ± 3.8 % of filtered
UKV (potassium excretion) (anesthetized rats; huUgnA 25 nmol, Post-infuse): 1309 ± 68 nEq/min/g KW
FEK (fractional potassium excretion) (anesthetized rats; huUgnA 25 nmol, Pre-infuse): 25.6 ± 2.4 % of filtered
UKV (potassium excretion) (anesthetized rats; huUgnA 25 nmol, Pre-infuse): 780 ± 69 nEq/min/g KW
FEK (fractional potassium excretion) (anesthetized rats; huUgnA 50 nmol, Infuse): 32.0 ± 2.7 % of filtered
UKV (potassium excretion) (anesthetized rats; huUgnA 50 nmol, Infusion): 988 ± 66 nEq/min/g KW
FEK (fractional potassium excretion) (anesthetized rats; huUgnA 50 nmol, Post-infuse): 36.3 ± 3.6 % of filtered
UKV (potassium excretion) (anesthetized rats; huUgnA 50 nmol, Post-infuse): 1180 ± 57 nEq/min/g KW
FEK (fractional potassium excretion) (anesthetized rats; huUgnA 50 nmol, Pre-infuse): 20.8 ± 2.1 % of filtered
UKV (potassium excretion) (anesthetized rats; huUgnA 50 nmol, Pre-infuse): 722 ± 52 nEq/min/g KW
FEK (fractional potassium excretion) (anesthetized rats; huUgnA 100 nmol, Infuse): 28.0 ± 3.5 % of filtered
UKV (potassium excretion) (anesthetized rats; huUgnA 100 nmol, Infusion): 878 ± 60 nEq/min/g KW
FEK (fractional potassium excretion) (anesthetized rats; huUgnA 100 nmol, Post-infuse): 29.9 ± 2.9 % of filtered
UKV (potassium excretion) (anesthetized rats; huUgnA 100 nmol, Post-infuse): 970 ± 72 nEq/min/g KW
FEK (fractional potassium excretion) (anesthetized rats; huUgnA 100 nmol, Pre-infuse): 19.3 ± 2.5 % of filtered
UKV (potassium excretion) (anesthetized rats; huUgnA 100 nmol, Pre-infuse): 602 ± 51 nEq/min/g KW
FEK (fractional potassium excretion) (anesthetized rats; huUgnA 200 nmol, Infuse): 40.8 ± 7.7 % of filtered
UKV (potassium excretion) (anesthetized rats; huUgnA 200 nmol, Infusion): 1203 ± 161 nEq/min/g KW
UKV (potassium excretion) (anesthetized rats; huUgnA 200 nmol, Post-infuse): 1380 ± 73 nEq/min/g KW
FEK (fractional potassium excretion) (anesthetized rats; huUgnA 200 nmol, Post-infuse, *** p<0.005 vs time control): 57.5 ± 6.7*** % of filtered
FEK (fractional potassium excretion) (anesthetized rats; huUgnA 200 nmol, Pre-infuse): 27.7 ± 5.9 % of filtered
UKV (potassium excretion) (anesthetized rats; huUgnA 200 nmol, Pre-infuse): 860 ± 118 nEq/min/g KW
FEK vs control (anesthetized rats): increased over control levels

CC(C)C[C@H](NC(=O)[C@@H]1CSSC[C@@H]2NC(=O)[C@H](CC(C)C)NC(=O)[C@H](CCC(=O)O)NC(=O)[C@@H](NC(=O)[C@H](CC(=O)O)NC(=O)[C@H](CC(=O)O)NC(=O)[C@@H](N)CC(N)=O)CSSC[C@H](NC(=O)[C@H](C)NC(=O)[C@H](C(C)C)NC(=O)[C@H](CC(N)=O)NC(=O)[C@H](C(C)C)NC2=O)C(=O)N[C@@H]([C@@H](C)O)C(=O)NCC(=O)N1)C(=O)O (single isomer, unassigned) [huUgnB, Asn Asp Asp Cys Glu Leu Cys Val Asn Val Ala Cys Thr Gly Cys Leu]
T84 cell cGMP response on co-application of huUgnA and B ([1]; 25 nM huUgnA with 180 nM huUgnB (FIG. 2B)): not different from those evoked by huUgnA alone
potency in activating cyclic GMP synthesis, fold less potent than the A isoform ([1]; GC-C-expressing T84 cell line): more than 100 fold
FEK (fractional potassium excretion) (anesthetized rats; huUgnB 9 nmol, Infuse): 30.6 ± 6.1 % of filtered
UKV (potassium excretion) (anesthetized rats; huUgnB 9 nmol, Infusion): 840 ± 83 nEq/min/g KW
FEK (fractional potassium excretion) (anesthetized rats; huUgnB 9 nmol, Post-infuse): 34.8 ± 3.1 % of filtered
UKV (potassium excretion) (anesthetized rats; huUgnB 9 nmol, Post-infuse): 943 ± 82 nEq/min/g KW
FEK (fractional potassium excretion) (anesthetized rats; huUgnB 9 nmol, Pre-infuse): 23.4 ± 6.0 % of filtered
UKV (potassium excretion) (anesthetized rats; huUgnB 9 nmol, Pre-infuse): 655 ± 79 nEq/min/g KW
FEK (fractional potassium excretion) (anesthetized rats; huUgnB 18 nmol, Infuse): 29.6 ± 3.2 % of filtered
UKV (potassium excretion) (anesthetized rats; huUgnB 18 nmol, Infusion): 860 ± 72 nEq/min/g KW
FEK (fractional potassium excretion) (anesthetized rats; huUgnB 18 nmol, Post-infuse): 39.2 ± 2.6 % of filtered
UKV (potassium excretion) (anesthetized rats; huUgnB 18 nmol, Post-infuse): 1014 ± 79 nEq/min/g KW
FEK (fractional potassium excretion) (anesthetized rats; huUgnB 18 nmol, Pre-infuse): 20.0 ± 2.3 % of filtered
UKV (potassium excretion) (anesthetized rats; huUgnB 18 nmol, Pre-infuse): 592 ± 71 nEq/min/g KW
FEK (fractional potassium excretion) (anesthetized rats; huUgnB 35 nmol, Infuse): 32.6 ± 3.7 % of filtered
UKV (potassium excretion) (anesthetized rats; huUgnB 35 nmol, Infusion): 837 ± 84 nEq/min/g KW
FEK (fractional potassium excretion) (anesthetized rats; huUgnB 35 nmol, Post-infuse): 38.9 ± 3.0 % of filtered
UKV (potassium excretion) (anesthetized rats; huUgnB 35 nmol, Post-infuse): 998 ± 85 nEq/min/g KW
FEK (fractional potassium excretion) (anesthetized rats; huUgnB 35 nmol, Pre-infuse): 25.7 ± 2.4 % of filtered
UKV (potassium excretion) (anesthetized rats; huUgnB 35 nmol, Pre-infuse): 729 ± 79 nEq/min/g KW
FEK (fractional potassium excretion) (anesthetized rats; huUgnB 70 nmol, Infuse): 37.7 ± 9.8 % of filtered
UKV (potassium excretion) (anesthetized rats; huUgnB 70 nmol, Infusion): 1297 ± 209 nEq/min/g KW
FEK (fractional potassium excretion) (anesthetized rats; huUgnB 70 nmol, Post-infuse): 47.1 ± 5.6 % of filtered
UKV (potassium excretion) (anesthetized rats; huUgnB 70 nmol, Post-infuse, * p<0.05 vs time control): 1491 ± 183* nEq/min/g KW
FEK (fractional potassium excretion) (anesthetized rats; huUgnB 70 nmol, Pre-infuse): 20.4 ± 5.5 % of filtered
UKV (potassium excretion) (anesthetized rats; huUgnB 70 nmol, Pre-infuse): 791 ± 265 nEq/min/g KW
FEK (fractional potassium excretion) (anesthetized rats; huUgnB 140 nmol, Infuse): 49.2 ± 3.6 % of filtered
UKV (potassium excretion) (anesthetized rats; huUgnB 140 nmol, Infusion): 1086 ± 124 nEq/min/g KW
UKV (potassium excretion) (anesthetized rats; huUgnB 140 nmol, Post-infuse): 1396 ± 89 nEq/min/g KW
FEK (fractional potassium excretion) (anesthetized rats; huUgnB 140 nmol, Post-infuse, ** p<0.01 vs time control): 58.4 ± 3.5** % of filtered
FEK (fractional potassium excretion) (anesthetized rats; huUgnB 140 nmol, Pre-infuse): 28.3 ± 0.9 % of filtered
UKV (potassium excretion) (anesthetized rats; huUgnB 140 nmol, Pre-infuse): 770 ± 78 nEq/min/g KW
FEK vs control (anesthetized rats): increased over control levels
natriuretic response (Mice): exhibit a natriuretic response
